This passage reports IC50 results from patent publication US9850283B2, “Macrocyclic inhibitors of the PD-1/PD-L1 and CD80(B7-1)/PD-L1 protein/protein interactions” (BRISTOL-MYERS SQUIBB COMPANY, priority 2013, dated 2017).

Test [1] addresses T1, LK35.2-hPD-L1 cells / PE-labeled PD-1-Ig (Homo sapiens, UniProt Q9NZQ7).
T1 construct: expressed in transfected cells; host or cells: LK35.2 mouse B cell line
As to the kind of experiment: LK35.2-hPD-L1 cell binding high-content screening assay. It counts as cell-based. To be noted: cluster symbol, read-out: CBA IC50 cluster. A digest of the protocol:
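Mouse LK35.2 B cells stably over-expressing human PD-L1, cultured overnight, treated with compound plus PE-labeled human PD-1-Ig (1 nM final) in RPMI/10% FCS for 1 h at 37 °C. After washing, bound fluorescence quantified by high-content imaging.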

In another test the target is T2, Human PD-L1/PD-1 (Homo sapiens, UniProt Q9NZQ7).
T2 construct: made in house; host or cells: HEK293T
T2 sequence (Q9NZQ7 with tags, fused parts or gaps): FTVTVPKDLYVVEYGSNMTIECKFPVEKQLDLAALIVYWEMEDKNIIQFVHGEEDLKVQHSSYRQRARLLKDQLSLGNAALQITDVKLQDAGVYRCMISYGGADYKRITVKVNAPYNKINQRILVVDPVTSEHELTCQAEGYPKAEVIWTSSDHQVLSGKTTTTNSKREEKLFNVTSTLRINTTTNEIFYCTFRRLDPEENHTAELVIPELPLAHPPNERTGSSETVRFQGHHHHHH
In words: HTRF PD-1-Ig/PD-L1-His binding assay (human PD-L1). To be noted: cluster symbol; read-out: HTRF IC50 cluster. A digest of the protocol: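 Soluble Fc-fused PD-1 and His-tagged PD-L1 (truncated before the transmembrane region) were combined in dPBS with 0.1% (w/v) BSA and 0.05% (v/v) Tween-20. Binding was read by HTRF using europium cryptate anti-Ig antibody (1 nM final) and APC anti-His antibody (20 nM final).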
(In general: TR-FRET usually uses a lanthanide donor and a delayed reading to cut background.)

Where [2] appears, read: cell binding assay, cell line not given.
Where [3] appears, read: cell line of CBA not given (LK35.2-hPD-L1 or 293T-hPD-L1).

Each structure is given as a SMILES string. Read-outs that look alike come from different tables or passages of the source. Starred links: 1 amine or outer side, 2 acyl side, 3 side chain; linkers in the order of their positions; H or OH if unused. Positions of bridges follow the written chain, without caps; N, C: chain ends. Non-standard residues stand in square brackets, D forms with d. Residues, ends and D or L forms follow the SMILES beside them. ξ: configuration not given here. Pro(trans-4-Ph) = O=C(O)[C@@H]1C[C@@H](c2ccccc2)CN1; X3 = O=C([C@@H]1C[C@@H](Cc2ccc(F)cc2)CN1[*:1])[*:2]; Phe(3,4,5-F3) = N[C@@H](Cc1cc(F)c(F)c(F)c1)C(=O)O; Tyr(3-I) = N[C@@H](Cc1ccc(O)c(I)c1)C(=O)O; Phe(4-Cl) = N[C@@H](Cc1ccc(Cl)cc1)C(=O)O; Bta = N[C@@H](Cc1csc2ccccc12)C(=O)O; Hyp = O=C(O)[C@@H]1C[C@@H](O)CN1; NMeF = CN[C@@H](Cc1ccccc1)C(=O)O; dHyp = O=C(O)[C@H]1C[C@H](O)CN1; NMeNle = CCCC[C@H](NC)C(=O)O; NMeM = CN[C@@H](CCSC)C(=O)O; dPip = O=C(O)[C@H]1CCCCN1; NMeA = CN[C@@H](C)C(=O)O; Orn = NCCC[C@H](N)C(=O)O; Dab = NCC[C@H](N)C(=O)O; Dap = NC[C@H](N)C(=O)O; ξC = NC(CS)C(=O)O; Sar = CNCC(=O)O

T1 sequence (Q9NZQ7 19-290): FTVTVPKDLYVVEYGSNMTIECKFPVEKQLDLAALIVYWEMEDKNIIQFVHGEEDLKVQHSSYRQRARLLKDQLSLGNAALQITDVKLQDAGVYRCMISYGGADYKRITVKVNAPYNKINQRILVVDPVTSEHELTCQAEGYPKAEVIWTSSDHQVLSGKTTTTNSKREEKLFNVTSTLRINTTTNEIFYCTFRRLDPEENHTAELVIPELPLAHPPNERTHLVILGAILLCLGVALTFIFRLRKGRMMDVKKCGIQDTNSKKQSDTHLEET

A word on the IC50: it is the concentration that inhibits the measured activity by half. Turning to `CCCC[C@H]1C(=O)N2C[C@@H](O)C[C@@H]2C(=O)N[C@@H](CC(N)=O)C(=O)N[C@@H](C(C)C)C(=O)N(C)[C@@H](Cc2ccccc2)C(=O)N[C@@H](Cc2ccc(O)cc2)C(=O)N2CCCC[C@@H]2C(=O)N[C@@H](Cc2c[nH]c3ccccc23)C(=O)N[C@@H](Cc2ccc(O)cc2)C(=O)N[C@@H](CCCCN)C(=O)N[C@H](C(=O)NCC(N)=O)CSCC(=O)N[C@@H](Cc2cc(F)c(F)c(F)c2)C(=O)N(C)[C@@H](Cc2ccccc2)C(=O)N1C` [Example 3591] ({CH2CO}-[Phe(3,4,5-F3)][NMeF][NMeNle][dHyp]NV[NMeF]Y[dPip]WYKCG-NH2; thioether N-13), the figures for the IC50 (in test [1] (setting [2]); on Human PD-L1/PD-1) were 0.158 to 4.71 nM and 0.385 to 6.74 nM, respectively.

Take `CCCC[C@H]1C(=O)N(C)[C@@H](CCCC)C(=O)N[C@@H](CC(C)C)C(=O)N[C@H](C(=O)NCC(N)=O)CSCC(=O)N[C@@H](Cc2ccc(O)cc2)C(=O)N(C)[C@@H](C)C(=O)N[C@@H](CCN)C(=O)N2CCC[C@H]2C(=O)N[C@@H](Cc2c[nH]cn2)C(=O)N[C@@H](CCC(=O)O)C(=O)N2C[C@H](O)C[C@H]2C(=O)N[C@@H](Cc2c[nH]c3ccccc23)C(=O)N[C@@H](CO)C(=O)N[C@@H](Cc2c[nH]c3ccccc23)C(=O)N1C` [Example 5133] ({CH2CO}-Y[NMeA][Dab]PHE[Hyp]WSW[NMeNle][NMeNle]LCG-NH2; thioether N-14): the values for the IC50 (in test [1] (setting [2]); at Human PD-L1/PD-1) were 4.78 to 72.9 nM and 0.385 to 6.74 nM, respectively.

For the molecule `CCCC[C@H]1C(=O)N(C)CC(=O)N[C@@H](CC(=O)O)C(=O)N[C@@H](C(C)C)C(=O)N[C@@H](Cc2ccc(Cl)cc2)C(=O)N[C@@H](Cc2ccc(O)cc2)C(=O)N(C)CC(=O)N[C@@H](Cc2c[nH]c3ccccc23)C(=O)N[C@@H](Cc2ccc(O)cc2)C(=O)N[C@@H](CC(C)C)C(=O)N[C@H](C(=O)NCC(N)=O)CSCC(=O)N[C@@H](Cc2ccccc2)C(=O)N(C)[C@@H](Cc2ccccc2)C(=O)N1C` [Example 3145] ({CH2CO}-F[NMeF][NMeNle][Sar]DV[Phe(4-Cl)]Y[Sar]WYLCG-NH2; thioether N-13), the IC50 is over 74.3 nM in test [1] (setting [3]) and over 30.5 nM at Human PD-L1/PD-1.

As for `CCCC[C@H]1C(=O)N(C)[C@@H](CCCC)C(=O)N[C@@H](C)C(=O)N[C@H](C(=O)NCC(N)=O)CSCC(=O)N[C@@H](Cc2ccc(O)cc2)C(=O)N(C)[C@@H](C)C(=O)N[C@@H](CC(=O)O)C(=O)N2CCC[C@H]2C(=O)N[C@@H](Cc2c[nH]cn2)C(=O)N[C@@H](CCC(=O)O)C(=O)N2C[C@H](Cc3ccc(F)cc3)C[C@H]2C(=O)N[C@@H](Cc2c[nH]c3ccccc23)C(=O)N[C@@H](CCN)C(=O)N[C@@H](Cc2c[nH]c3ccccc23)C(=O)N1C` [Example 13012] ({CH2CO}-Y[NMeA]DPHE[X3]W[Dab]W[NMeNle][NMeNle]ACG-NH2; thioether N-14), the IC50 in test [1] (setting [2]) lay within 0.158 to 4.71 nM; on Human PD-L1/PD-1, 0.385 to 6.74 nM.

Consider `CCCC[C@H]1C(=O)N(C)[C@@H](CCSC)C(=O)N[C@@H](CCCNC(=N)N)C(=O)NC(C(=O)NCC(N)=O)CSCC(=O)N[C@@H](Cc2ccc(O)cc2)C(=O)N(C)[C@@H](C)C(=O)N[C@@H](CC(N)=O)C(=O)N2CCC[C@H]2C(=O)N[C@@H](CN)C(=O)N[C@@H](CC(C)C)C(=O)N2CCC[C@H]2C(=O)N[C@@H](Cc2c[nH]c3ccccc23)C(=O)N[C@@H](CO)C(=O)N[C@@H](Cc2csc3ccccc23)C(=O)N1C` (some centres unmarked) [Example 9082] ({CH2CO}-Y[NMeA]NP[Dap]LPWS[Bta][NMeNle][NMeM]R[ξC]G-NH2; thioether N-14), for which the values for the IC50 (in test [1] (setting [2]); at Human PD-L1/PD-1) were 0.158 to 4.71 nM and 0.385 to 6.74 nM, respectively.

Regarding `CCCC[C@H]1C(=O)N(C)CC(=O)N[C@@H](CC(=O)O)C(=O)N[C@@H](C(C)C)C(=O)N(C)[C@@H](Cc2ccccc2)C(=O)N[C@@H](Cc2ccc(O)c(I)c2)C(=O)N(C)CC(=O)N[C@@H](Cc2c[nH]c3ccccc23)C(=O)N[C@@H](Cc2ccc(O)cc2)C(=O)N[C@@H](CC(C)C)C(=O)N[C@H](C(=O)NCC(N)=O)CSCC(=O)N[C@@H](Cc2ccccc2)C(=O)N(C)[C@@H](Cc2ccccc2)C(=O)N1C` [Example 3111] ({CH2CO}-F[NMeF][NMeNle][Sar]DV[NMeF][Tyr(3-I)][Sar]WYLCG-NH2; thioether N-13), the half-inhibitory concentration (IC50) is 4.78 to 72.9 nM in test [1] (setting [3]) and over 30.5 nM on Human PD-L1/PD-1.

On to `CCCC[C@H]1C(=O)N(C)[C@@H](CCCC)C(=O)N[C@@H](CCCN)C(=O)N[C@H](C(=O)NCC(N)=O)CSCC(=O)N[C@@H](Cc2ccc(O)cc2)C(=O)N(C)[C@@H](C)C(=O)N[C@@H](CC(N)=O)C(=O)N2CCC[C@H]2C(=O)N[C@@H](CN)C(=O)N[C@@H](CC(=O)O)C(=O)N2C[C@H](O)C[C@H]2C(=O)N[C@@H](Cc2c[nH]c3ccccc23)C(=O)N[C@@H](CCN)C(=O)N[C@@H](Cc2csc3ccccc23)C(=O)N1C` [Example 1186] ({CH2CO}-Y[NMeA]NP[Dap]D[Hyp]W[Dab][Bta][NMeNle][NMeNle][Orn]CG-NH2; thioether N-14), for which the IC50 in test [1] (setting [3]) was 0.158 to 4.71 nM; on Human PD-L1/PD-1, 0.385 to 6.74 nM.

Consider `CCCC[C@H]1C(=O)N[C@@H](Cc2c[nH]c3ccccc23)C(=O)N[C@@H](CCN)C(=O)N[C@@H](Cc2c[nH]c3ccccc23)C(=O)N(C)[C@@H](CCCC)C(=O)N(C)[C@@H](CCCC)C(=O)N[C@@H](CC(C)C)C(=O)N[C@H](C(=O)NCC(N)=O)CSCC(=O)N[C@@H](Cc2ccc(O)cc2)C(=O)N(C)[C@@H](C)C(=O)N[C@@H](CC(N)=O)C(=O)N2CCC[C@H]2C(=O)N[C@@H](CN)C(=O)N[C@@H](CC(C)C)C(=O)N1C` [Example 6041] ({CH2CO}-Y[NMeA]NP[Dap]L[NMeNle]W[Dab]W[NMeNle][NMeNle]LCG-NH2; thioether N-14), for which the values for the IC50 (in test [1] (setting [2]); at Human PD-L1/PD-1) were 4.78 to 72.9 nM and 6.76 to 30.3 nM, respectively.

In the case of `CCCC[C@H]1C(=O)N(C)[C@@H](CCCC)C(=O)N[C@@H](CCCN)C(=O)N[C@H](C(=O)NCC(N)=O)CSCC(=O)N[C@@H](Cc2ccc(O)cc2)C(=O)N(C)[C@@H](C)C(=O)N[C@@H](CC(N)=O)C(=O)N2CCC[C@H]2C(=O)N[C@@H](CN)C(=O)N[C@@H](CC(C)C)C(=O)N2C[C@H](c3ccccc3)C[C@H]2C(=O)N[C@@H](Cc2c[nH]c3ccccc23)C(=O)N[C@@H](CO)C(=O)N[C@@H](Cc2c[nH]c3ccccc23)C(=O)N1C` [Example 14001] ({CH2CO}-Y[NMeA]NP[Dap]L[Pro(trans-4-Ph)]WSW[NMeNle][NMeNle][Orn]CG-NH2; thioether N-14), the IC50 in test [1] (setting [2]) was in the range of 0.158 to 4.71 nM; on Human PD-L1/PD-1, 0.385 to 6.74 nM.

Turning to `CCCC[C@H]1C(=O)N(C)[C@@H](CCCC)C(=O)N[C@@H](C)C(=O)N[C@H](C(=O)NCC(N)=O)CSCC(=O)N[C@@H](Cc2ccc(O)cc2)C(=O)N(C)[C@@H](C)C(=O)N[C@@H](CC(=O)O)C(=O)N2CCC[C@H]2C(=O)N[C@@H](Cc2cnc[nH]2)C(=O)N[C@@H](CC(C)C)C(=O)N2CCC[C@H]2C(=O)N[C@@H](Cc2c[nH]c3ccccc23)C(=O)N[C@@H](CO)C(=O)N[C@@H](Cc2c[nH]c3ccccc23)C(=O)N1C` [Example 1121] ({CH2CO}-Y[NMeA]DPHLPWSW[NMeNle][NMeNle]ACG-NH2; thioether N-14), the IC50 fell in the range of 0.158 to 4.71 nM in test [1] (setting [3]) and 6.76 to 30.3 nM on Human PD-L1/PD-1.
